Reference: patent US12103919B2, “3-(5-oxy)-1-oxoisoindolin-2-yl)piperidine-2,6-dione derivatives and uses thereof” (NOVARTIS AG, priority 2021, dated 2024)
Where two headings read alike, the source gives them in different places.

Target: T1, WIZ (Homo sapiens, UniProt O95785+Q96SW2)
T1 construct: expressed in transfected cells
Experiment: Quantification of WIZ protein levels in HiBit tag fusion protein assay (293T cells)
Format: cell-based
Set-up: Dmax: dose or concentration left out as unconfirmed
Protocol: The HiBit system from Promega was used to develop high-throughput and quantitative assays to measure changes in WIZ protein levels in response to compounds. The HiBit tag was derived from a split Nanoluciferase and has the following protein sequence: […] (SEQ ID NO: 1). The complementary fragment of Nanoluciferase (known as LgBit, from Promega), was added to the HiBit tag to form an active Nanoluciferase enzyme whose activity can be precisely measured. In this way, the levels of a fusion protein with the HiBit tag can be quantified in cell lysates.
Lentiviral vectors, based on the Invitrogen™ pLenti6.2/V5 DEST backbone were constructed that places the HiBit tag upstream of WIZ and expressed the fusion protein from an HSVTK promotor.
To ensure moderate and consistent expression of the HiBit-WIZ fusion protein across all cells in the population, stable cell lines were constructed from cells harboring a single copy of the construct. Lentivirus packaged with the constructs were made using the ViraPowerTMkit from Invitrogen™. 293T cells from ATCC (Catalog number: CRL-3216), were infected with the virus at low multiplicity of infection and selected by 5 μg/mL blasticidin in culture media for 2 weeks.
The levels of HiBit-WIZ tagged fusion proteins in compound-treated cell lines were measured as follows:
On day 1, cells were diluted to 1.0×10^6 cells/ml in normal growth medium. 20 μL of cell suspension were plated in each well of a solid white 384-well plate. Plates were incubated overnight in a 37° C. and 5% CO2 humidified tissue culture incubator.
On day 2, serial dilutions of compounds were made in 384-well plates. Compound plates were set up with DMSO in columns 1, 2, 23, 24, and 10-point compound dilution series in column 3-12 and column 13-22. 10 mM stock solution of compound were placed into column 3 or 13 and a 1:5 serial dilution was carried out until there was a 10-point dilution series per compound. 50 nL of diluted compounds were transferred into the plated cells by Echo® (Labcyte) acoustic transfer. The highest concentration of compound was 25 μM. Plates were incubated overnight (about 18 hours) in a 37° C. and 5% CO2 humidified tissue culture incubator.
On day 3, plates were removed from the incubator and allowed to equilibrate at room temperature for 60 minutes. HiBit substrate (Nano-Glo® HiBit Lytic Detection System, Promega Catalogue number: N3050) was added as described by the manufacturers protocols. Plates were incubated at room temperature for 30 minutes and luminescence was read using an EnVision® reader (PerkinElmer®). Data was analyzed and visualized using the Spotfire® software package.
WIZ Amax reflects the DMSO-normalized, curve-fitted percentage of WIZ-HiBit remaining at 25 uM. It was calculated by normalizing DMSO controls to 100%, parametric curve fitting of the dose response data (10-point, 5-fold), followed by calculation of response at 25 uM using the fitted equation.

[1] = HEK-293T; DMSO-normalized, curve-fitted percentage of WIZ-HiBit remaining at 25 uM; read-out: WIZ Amax
[2] = HEK-293T; at 25 uM, 100 − Amax; read-out: % degradation of WIZ (100 − Amax)
[3] = WIZ HiBit assay in 293T cells, about 18 hours, 10-point 5-fold dilution, top 25 μM; read-out: WIZ AC50
[4] = HEK-293T, read-out: % degradation of WIZ (100 − Amax)

T1 sequence (O95785 whole entry): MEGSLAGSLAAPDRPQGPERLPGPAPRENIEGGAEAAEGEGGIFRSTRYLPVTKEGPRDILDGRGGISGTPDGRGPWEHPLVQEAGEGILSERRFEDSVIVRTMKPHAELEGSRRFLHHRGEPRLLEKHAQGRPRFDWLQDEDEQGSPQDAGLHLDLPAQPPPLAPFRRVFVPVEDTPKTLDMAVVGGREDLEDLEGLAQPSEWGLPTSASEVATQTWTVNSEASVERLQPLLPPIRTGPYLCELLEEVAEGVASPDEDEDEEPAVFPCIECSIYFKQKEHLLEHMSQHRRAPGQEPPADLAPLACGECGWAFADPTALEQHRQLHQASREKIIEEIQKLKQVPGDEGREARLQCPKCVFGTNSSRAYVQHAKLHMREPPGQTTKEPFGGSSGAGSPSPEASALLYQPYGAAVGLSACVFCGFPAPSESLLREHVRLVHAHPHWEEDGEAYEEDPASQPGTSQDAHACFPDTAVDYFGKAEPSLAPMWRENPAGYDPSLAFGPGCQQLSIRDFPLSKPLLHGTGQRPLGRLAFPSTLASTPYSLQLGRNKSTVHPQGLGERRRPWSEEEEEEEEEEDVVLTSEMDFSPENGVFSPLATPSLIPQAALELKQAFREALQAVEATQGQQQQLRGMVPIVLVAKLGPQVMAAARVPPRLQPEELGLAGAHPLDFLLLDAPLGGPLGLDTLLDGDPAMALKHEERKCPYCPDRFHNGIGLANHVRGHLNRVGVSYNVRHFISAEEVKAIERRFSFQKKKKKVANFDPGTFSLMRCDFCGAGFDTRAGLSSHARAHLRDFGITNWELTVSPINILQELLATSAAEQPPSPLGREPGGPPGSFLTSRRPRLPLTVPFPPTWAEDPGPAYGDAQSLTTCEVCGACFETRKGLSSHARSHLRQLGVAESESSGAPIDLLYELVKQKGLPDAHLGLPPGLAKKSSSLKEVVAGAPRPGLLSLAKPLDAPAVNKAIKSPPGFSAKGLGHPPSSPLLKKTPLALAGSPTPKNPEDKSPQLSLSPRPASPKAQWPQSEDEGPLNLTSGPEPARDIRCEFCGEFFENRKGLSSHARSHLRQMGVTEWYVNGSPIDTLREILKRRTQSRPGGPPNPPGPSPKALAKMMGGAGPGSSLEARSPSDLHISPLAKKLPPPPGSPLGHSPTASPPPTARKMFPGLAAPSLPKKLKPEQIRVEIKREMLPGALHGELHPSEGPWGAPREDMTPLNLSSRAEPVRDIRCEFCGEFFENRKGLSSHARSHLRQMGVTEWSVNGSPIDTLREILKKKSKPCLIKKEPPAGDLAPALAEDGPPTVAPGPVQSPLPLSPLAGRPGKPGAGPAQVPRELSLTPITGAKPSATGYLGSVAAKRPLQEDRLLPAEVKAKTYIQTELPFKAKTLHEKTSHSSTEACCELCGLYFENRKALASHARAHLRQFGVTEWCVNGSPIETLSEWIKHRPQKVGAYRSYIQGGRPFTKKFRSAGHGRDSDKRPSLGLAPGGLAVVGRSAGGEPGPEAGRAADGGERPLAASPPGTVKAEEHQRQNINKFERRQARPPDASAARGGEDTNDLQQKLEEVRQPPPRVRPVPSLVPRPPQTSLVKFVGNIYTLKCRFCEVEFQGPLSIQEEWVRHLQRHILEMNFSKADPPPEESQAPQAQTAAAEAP
T1 sequence (Q96SW2 whole entry): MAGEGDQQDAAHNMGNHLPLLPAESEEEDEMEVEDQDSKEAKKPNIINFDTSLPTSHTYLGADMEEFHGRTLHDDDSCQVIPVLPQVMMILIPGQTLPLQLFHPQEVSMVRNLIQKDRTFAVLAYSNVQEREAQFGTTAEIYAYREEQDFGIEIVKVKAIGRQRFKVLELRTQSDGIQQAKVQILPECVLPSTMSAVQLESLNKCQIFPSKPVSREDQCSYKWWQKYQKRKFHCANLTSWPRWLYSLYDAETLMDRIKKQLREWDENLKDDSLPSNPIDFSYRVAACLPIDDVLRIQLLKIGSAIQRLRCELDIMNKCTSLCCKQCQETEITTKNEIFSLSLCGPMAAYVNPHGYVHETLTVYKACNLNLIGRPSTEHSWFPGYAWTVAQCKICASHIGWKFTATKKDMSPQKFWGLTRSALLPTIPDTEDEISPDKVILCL
T1 sequence (Q16531 whole entry partner): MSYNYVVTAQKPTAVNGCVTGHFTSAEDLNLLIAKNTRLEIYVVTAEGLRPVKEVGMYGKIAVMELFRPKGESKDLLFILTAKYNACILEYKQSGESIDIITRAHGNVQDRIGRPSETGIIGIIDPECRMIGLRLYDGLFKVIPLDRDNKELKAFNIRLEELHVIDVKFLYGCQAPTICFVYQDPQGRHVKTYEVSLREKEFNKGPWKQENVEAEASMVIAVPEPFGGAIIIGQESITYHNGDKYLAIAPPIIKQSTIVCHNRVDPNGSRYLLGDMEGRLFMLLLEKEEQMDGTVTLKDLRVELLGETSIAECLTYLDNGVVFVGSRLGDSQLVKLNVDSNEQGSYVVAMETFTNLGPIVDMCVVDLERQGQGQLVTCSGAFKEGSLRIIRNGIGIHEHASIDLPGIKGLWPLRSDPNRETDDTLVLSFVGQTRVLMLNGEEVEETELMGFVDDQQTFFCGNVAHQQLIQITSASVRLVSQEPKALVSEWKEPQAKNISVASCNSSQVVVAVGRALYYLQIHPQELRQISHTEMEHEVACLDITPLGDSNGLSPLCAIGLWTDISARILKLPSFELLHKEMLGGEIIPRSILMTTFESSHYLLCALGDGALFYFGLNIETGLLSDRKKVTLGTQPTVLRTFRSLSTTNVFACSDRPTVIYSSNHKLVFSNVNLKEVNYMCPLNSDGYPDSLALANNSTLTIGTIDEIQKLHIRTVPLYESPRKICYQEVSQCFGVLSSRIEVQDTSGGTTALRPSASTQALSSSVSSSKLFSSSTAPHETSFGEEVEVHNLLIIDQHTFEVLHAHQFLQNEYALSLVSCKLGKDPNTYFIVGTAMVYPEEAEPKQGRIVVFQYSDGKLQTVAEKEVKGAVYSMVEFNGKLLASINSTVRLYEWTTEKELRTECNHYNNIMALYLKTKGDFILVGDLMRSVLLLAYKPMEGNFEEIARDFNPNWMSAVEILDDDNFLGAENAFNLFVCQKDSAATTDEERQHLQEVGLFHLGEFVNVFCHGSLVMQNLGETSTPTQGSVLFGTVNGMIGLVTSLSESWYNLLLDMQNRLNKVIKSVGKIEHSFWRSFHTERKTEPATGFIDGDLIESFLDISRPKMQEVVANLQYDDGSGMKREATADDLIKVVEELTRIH

SMILES	remaining activity at 25 µM [1]	Dmax at 25 µM [2]	DC50 [3]	Dmax [4]	remaining activity at 25 µM (HEK-293T, read-out: WIZ Amax)	% degradation of WIZ (100 − Amax) (at 25 uM, 100 − Amax)	DC50 (read-out: WIZ AC50; WIZ HiBit assay in 293T cells, about 18 hours, 10-point 5-fold dilution, top 25 μM)
CCCN1CCC[C@@H](Oc2ccc3c(c2)CN(C2CCC(=O)NC2=O)C3=O)C1 (stereo partly drawn) [Example 8, 3-(1-oxo-5-(((R)-1-propylpiperidin-3-yl)oxy)isoindolin-2-yl)piperidine-2,6-dione]	33%	67%	28 nM	–	–	–	–
CCN1CCC2(CC2)[C@@H](Oc2ccc3c(c2)CN(C2CCC(=O)NC2=O)C3=O)C1 (stereo partly drawn) [Example 15, 3-(5-(((R)-6-ethyl-6-azaspiro[2.5]octan-4-yl)oxy)-1-oxoisoindolin-2-yl)piperidine-2,6-dione]	–	–	8.4 nM	80%	20%	–	–
CCN1CC[C@H](F)[C@H](Oc2ccc3c(c2)CN(C2CCC(=O)NC2=O)C3=O)C1 (relative stereo) [Example 58, 3-(5-(((3R*,4S*)-1-ethyl-4-fluoropiperidin-3-yl)oxy)-1-oxoisoindolin-2-yl)piperidine-2,6-dione]	–	–	4.9 nM	60.7%	39.3%	–	–
CC[C@H](C)N1CCC(C)(C)C(Oc2ccc3c(c2)CN(C2CCC(=O)NC2=O)C3=O)C1 (single isomer, unassigned) [Example 50]	97.6%	–	> 25000 nM	–	–	2.38%	–
CCN1C[C@H](C)C[C@@H](Oc2ccc3c(c2)CN(C2CCC(=O)NC2=O)C3=O)C1 (single isomer, unassigned) [Example 76-1]	13.8%	86.2%	1.6 nM	–	–	–	–
C[C@H]1CC[C@@H](Oc2ccc3c(c2)CN(C2CCC(=O)NC2=O)C3=O)CN1C1CCC1 (stereo partly drawn) [Example 82, 3-(5-(((3R,6S)-1-cyclobutyl-6-methylpiperidin-3-yl)oxy)-1-oxoisoindolin-2-yl)piperidine-2,6-dione]	–	–	0.5 nM	85%	15%	–	–
CCO[C@@H]1C[C@@H](Oc2ccc3c(c2)CN(C2CCC(=O)NC2=O)C3=O)CN(C(=O)NC)C1 (stereo partly drawn) [Example 68, (3R,5R)-3-((2-(2,6-dioxopiperidin-3-yl)-1-oxoisoindolin-5-yl)oxy)-5-ethoxy-N-methylpiperidine-1-carboxamide]	105%	–	> 25000 nM	–	–	–	–
O=C1CCC(N2Cc3cc(O[C@@H]4CCCN(CC5CCC5)C4)ccc3C2=O)C(=O)N1 (stereo partly drawn) [Example 7, 3-(5-(((R)-1-(cyclobutylmethyl)piperidin-3-yl)oxy)-1-oxoisoindolin-2-yl)piperidine-2,6-dione]	38.9%	61.1%	1.1 nM	–	–	–	–
O=C1CCC(N2Cc3cc(O[C@@H]4CCCN(C5COC5)C4)ccc3C2=O)C(=O)N1 (stereo partly drawn) [Example 12, 3-(5-(((R)-1-(oxetan-3-yl)piperidin-3-yl)oxy)-1-oxoisoindolin-2-yl)piperidine-2,6-dione]	68.5%	31.5%	130 nM	–	–	–	–
CC#CCN1CCC[C@@H](Oc2ccc3c(c2)CN(C2CCC(=O)NC2=O)C3=O)C1 (stereo partly drawn) [Example 24, 3-(5-(((R)-1-(but-2-yn-1-yl)piperidin-3-yl)oxy)-1-oxoisoindolin-2-yl)piperidine-2,6-dione]	47.3%	52.7%	10 nM	–	–	–	–
CCN1CC[C@@H](Oc2ccc3c(c2)CN(C2CCC(=O)NC2=O)C3=O)C1 (stereo partly drawn) [Example 39, 3-(5-(((R)-1-ethylpyrrolidin-3-yl)oxy)-1-oxoisoindolin-2-yl)piperidine-2,6-dione]	–	–	210 nM	52.1%	47.9%	–	–
CCN1C[C@@H](C)C[C@@H](Oc2ccc3c(c2)CN(C2CCC(=O)NC2=O)C3=O)C1 (mixture of isomers) [Example 45, rac-3-(5-(((3R,5S)-1-ethyl-5-methylpiperidin-3-yl)oxy)-1-oxoisoindolin-2-yl)piperidine-2,6-dione]	–	–	7.6 nM	43.7%	56.3%	–	–
CC(C)N1C[C@H](O)C[C@@H](Oc2ccc3c(c2)CN(C2CCC(=O)NC2=O)C3=O)C1 (stereo partly drawn) [Example 67, 3-(5-(((3R,5R)-5-hydroxy-1-isopropylpiperidin-3-yl)oxy)-1-oxoisoindolin-2-yl)piperidine-2,6-dione]	16.9%	83.1%	11.2 nM	–	–	–	–
CCN1CC(Oc2ccc3c(c2)CN(C2CCC(=O)NC2=O)C3=O)CCC1(C)C (centres unmarked) [Example 88-2, 3-(5-((1-ethyl-6,6-dimethylpiperidin-3-yl)oxy)-1-oxoisoindolin-2-yl)piperidine-2,6-dione]	–	–	0.7 nM	79.5%	20.5%	–	–
O=C1CCC(N2Cc3cc(O[C@@H]4CCCN(C5CC6(CCOCC6)C5)C4)ccc3C2=O)C(=O)N1 (stereo partly drawn) [Example 28, 3-(5-(((R)-1-(7-oxaspiro[3.5]nonan-2-yl)piperidin-3-yl)oxy)-1-oxoisoindolin-2-yl)piperidine-2,6-dione]	67.1%	32.9%	84 nM	–	–	–	–
CCN1C[C@H](Oc2ccc3c(c2)CN(C2CCC(=O)NC2=O)C3=O)CC[C@H]1C (stereo partly drawn) [Example 23, 3-(5-(((3R,6R)-1-ethyl-6-methylpiperidin-3-yl)oxy)-1-oxoisoindolin-2-yl)piperidine-2,6-dione]	–	–	–	57.7%	42.3%	–	30 nM
CCN1CC[C@@H](F)[C@H](Oc2ccc3c(c2)CN(C2CCC(=O)NC2=O)C3=O)C1 (relative stereo) [Example 56, 3-(5-(((3R*,4R*)-1-ethyl-4-fluoropiperidin-3-yl)oxy)-1-oxoisoindolin-2-yl)piperidine-2,6-dione]	–	–	950 nM	16.2%	83.8%	–	–
CCN1C[C@H](O)C[C@@H](Oc2ccc3c(c2)CN(C2CCC(=O)NC2=O)C3=O)C1 (stereo partly drawn) [Example 66, 3-(5-(((3R,5R)-1-ethyl-5-hydroxypiperidin-3-yl)oxy)-1-oxoisoindolin-2-yl)piperidine-2,6-dione]	19.9%	80.1%	33.3 nM	–	–	–	–
CC(C)N1C[C@H](C)C[C@@H](Oc2ccc3c(c2)CN(C2CCC(=O)NC2=O)C3=O)C1 (stereo partly drawn) [Example 77, 3-(5-(((3R,5R)-1-isopropyl-5-methylpiperidin-3-yl)oxy)-1-oxoisoindolin-2-yl)piperidine-2,6-dione]	13.6%	86.5%	1.1 nM	–	–	–	–
CCN1CC[C@H](F)[C@@H](Oc2ccc3c(c2)CN(C2CCC(=O)NC2=O)C3=O)C1 (relative stereo) [Example 55, 3-(5-(((3S*,4S*)-1-ethyl-4-fluoropiperidin-3-yl)oxy)-1-oxoisoindolin-2-yl)piperidine-2,6-dione]	–	–	26 nM	44.9%	55.1%	–	–
CCO[C@@H]1C[C@@H](Oc2ccc3c(c2)CN(C2CCC(=O)NC2=O)C3=O)CN(CC(C)C)C1 (stereo partly drawn) [Example 72, 3-(5-(((3R,5R)-5-ethoxy-1-isobutylpiperidin-3-yl)oxy)-1-oxoisoindolin-2-yl)piperidine-2,6-dione]	40.1%	59.9%	41.5 nM	–	–	–	–
CCN1C[C@@H](F)C[C@@H](Oc2ccc3c(c2)CN(C2CCC(=O)NC2=O)C3=O)C1 (stereo partly drawn) [Example 59, 3-(5-(((3R,5S)-1-ethyl-5-fluoropiperidin-3-yl)oxy)-1-oxoisoindolin-2-yl)piperidine-2,6-dione]	–	–	2.6 nM	64.4%	35.6%	–	–
C=CCCN1CCC[C@@H](Oc2ccc3c(c2)CN(C2CCC(=O)NC2=O)C3=O)C1 (stereo partly drawn) [Example 31, 3-(5-(((R)-1-(but-3-en-1-yl)piperidin-3-yl)oxy)-1-oxoisoindolin-2-yl)piperidine-2,6-dione]	31.4%	68.6%	8.9 nM	–	–	–	–
C[C@H]1CC[C@@H](Oc2ccc3c(c2)CN(C2CCC(=O)NC2=O)C3=O)CN1S(C)(=O)=O (stereo partly drawn) [Example 85, 3-(5-(((3R,6S)-6-methyl-1-(methylsulfonyl)piperidin-3-yl)oxy)-1-oxoisoindolin-2-yl)piperidine-2,6-dione]	65.7%	34.3%	67.2 nM	–	–	–	–
